{"source": "ChEMBL document CHEMBL4038272", "about": "“Synthesis and biological evaluation of novel podophyllotoxin-NSAIDs conjugates as multifunctional anti-MDR agents against resistant human hepatocellular carcinoma Bel-7402/5-FU cells” (Eur J Med Chem, 2017)", "key": {"[1]": {"system": "Bel7402/5-FU", "experiment": "Antiproliferative activity against human Bel7402/5-FU cells after 72 hrs by CCK-8 assay", "format": "functional, cell-based"}, "[2]": {"system": "Bel7402/5-FU", "experiment": "Induction of apoptosis in human Bel7402/5-FU cells assessed as ratio of cleaved PARP to beta-actin level at 0.05 uM after 48 hrs by Western blot analysis (reference value: 0.2)", "format": "functional"}, "[3]": {"system": "L02", "experiment": "Antiproliferative activity against human LO2 cells after 72 hrs by CCK-8 assay", "format": "cell-based", "conditions": "L02, 72 h"}, "[4]": {"system": "Bel7402/5-FU", "experiment": "Induction of apoptosis in human Bel7402/5-FU cells assessed as late apoptotic cells at 0.05 uM after 48 hrs by Annexin V-APC/7-AAD staining based flow cytometry (reference value: 3%)", "format": "functional"}, "[5]": {"system": "Bel7402/5-FU", "experiment": "Effect on CDK2 expression in human Bel7402/5-FU cells assessed as ratio of CDK2 to beta-actin level at 0.05 uM after 48 hrs by Western blot analysis (reference value: 0.43)", "format": "functional"}, "[6]": {"system": "Bel7402/5-FU", "experiment": "Effect on cyclinB1 expression in human Bel7402/5-FU cells assessed as ratio of cyclinB1 to beta-actin level at 0.05 uM after 48 hrs by Western blot analysis (reference value: 0.53)", "format": "functional"}, "[7]": {"system": "Bel7402/5-FU", "experiment": "Induction of apoptosis in human Bel7402/5-FU cells assessed as morphological changes at 0.05 uM after 24 hrs by Hoechst 33342 staining based fluorescent microscopic method", "format": "functional, cell-based"}, "[8]": {"system": "Bel7402/5-FU", "experiment": "Induction of apoptosis in human Bel7402/5-FU cells at 0.05 uM after 24 hrs by Hoechst 33342 staining based fluorescent microscopic method", "format": "functional, cell-based"}, "[9]": {"system": "Bel7402/5-FU", "experiment": "Reduction in microtubule density in human Bel7402/5-FU cells at 0.05 uM after 24 to 48 hrs by DAPI staining based immunofluorescence microscopic method", "format": "functional, cell-based"}, "[10]": {"system": "Bel7402/5-FU", "experiment": "Induction of apoptosis in human Bel7402/5-FU cells assessed as ratio of cleaved caspase-9 to beta-actin level at 0.05 uM after 48 hrs by Western blot analysis (reference value: 0.17)", "format": "functional"}, "[11]": {"system": "Bel7402/5-FU", "experiment": "Effect on cyclinA expression in human Bel7402/5-FU cells assessed as ratio of cyclinA to beta-actin level at 0.05 uM after 48 hrs by Western blot analysis (reference value: 0.39)", "format": "functional"}, "[12]": {"experiment": "Resistant factor, ratio of IC50 for human Bel7402/5-FU cells to IC50 for human Bel7402 cells", "format": "functional"}, "[13]": {"system": "Bel7402/5-FU", "experiment": "Induction of apoptosis in human Bel7402/5-FU cells assessed as live cells at 0.05 uM after 48 hrs by Annexin V-APC/7-AAD staining based flow cytometry (reference value: 91.08%)", "format": "functional"}, "[14]": {"system": "Bel7402/5-FU", "experiment": "Cell cycle arrest in human Bel7402/5-FU cells assessed as accumulation at S phase at 0.05 uM after 48 hrs by propidium iodide staining based flow cytometry (reference value: 12.62%)", "format": "functional"}, "[15]": {"system": "Bel7402/5-FU", "experiment": "Induction of apoptosis in human Bel7402/5-FU cells assessed as ratio of cleaved caspase-3 to beta-actin level at 0.05 uM after 48 hrs by Western blot analysis (reference value: 0.19)", "format": "functional"}, "[16]": {"system": "Bel7402/5-FU", "experiment": "Antimigratory activity in human Bel7402/5-FU cells at 0.05 uM after 24 hrs by wound healing assay", "format": "functional, cell-based"}, "[17]": {"system": "Bel7402/5-FU", "experiment": "Effect on CDK1 expression in human Bel7402/5-FU cells assessed as ratio of CDK1 to beta-actin level at 0.05 uM after 48 hrs by Western blot analysis (reference value: 0.33)", "format": "functional"}, "[18]": {"target": "RAC-alpha serine/threonine-protein kinase (Homo sapiens) (UniProt P31749)", "sequence (P31749 whole entry)": "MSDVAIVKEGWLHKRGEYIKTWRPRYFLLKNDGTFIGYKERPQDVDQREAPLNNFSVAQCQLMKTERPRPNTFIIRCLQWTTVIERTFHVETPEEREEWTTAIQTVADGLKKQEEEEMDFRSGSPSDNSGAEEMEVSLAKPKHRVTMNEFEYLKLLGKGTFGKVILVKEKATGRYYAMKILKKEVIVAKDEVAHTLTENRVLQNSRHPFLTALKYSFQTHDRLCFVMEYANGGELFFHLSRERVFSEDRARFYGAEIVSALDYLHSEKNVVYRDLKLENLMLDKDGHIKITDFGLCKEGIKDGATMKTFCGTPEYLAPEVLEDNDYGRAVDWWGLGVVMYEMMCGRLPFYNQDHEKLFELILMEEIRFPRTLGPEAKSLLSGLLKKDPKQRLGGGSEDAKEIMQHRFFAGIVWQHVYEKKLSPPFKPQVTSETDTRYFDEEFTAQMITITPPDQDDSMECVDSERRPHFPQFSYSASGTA", "experiment": "Effect on AKT phosphorylation in human Bel7402/5-FU cells assessed as ratio of phosphorylated AKT to beta-actin level at 0.05 uM after 48 hrs by Western blot analysis (reference value: 0.39)", "format": "cell-based"}, "[19]": {"system": "Bel7402/5-FU", "experiment": "Cell cycle arrest in human Bel7402/5-FU cells assessed as accumulation at G1 phase at 0.05 uM after 48 hrs by propidium iodide staining based flow cytometry (reference value: 52.21%)", "format": "functional"}, "[20]": {"system": "Bel-7402", "experiment": "Antiproliferative activity against human Bel7402 cells after 72 hrs by CCK-8 assay", "format": "functional, cell-based", "conditions": "Bel-7402, 72 h"}, "[21]": {"target": "Mitogen-activated protein kinase; ERK1/ERK2 (Homo sapiens) (UniProt P27361+P28482)", "sequence (P27361 whole entry, looked up)": "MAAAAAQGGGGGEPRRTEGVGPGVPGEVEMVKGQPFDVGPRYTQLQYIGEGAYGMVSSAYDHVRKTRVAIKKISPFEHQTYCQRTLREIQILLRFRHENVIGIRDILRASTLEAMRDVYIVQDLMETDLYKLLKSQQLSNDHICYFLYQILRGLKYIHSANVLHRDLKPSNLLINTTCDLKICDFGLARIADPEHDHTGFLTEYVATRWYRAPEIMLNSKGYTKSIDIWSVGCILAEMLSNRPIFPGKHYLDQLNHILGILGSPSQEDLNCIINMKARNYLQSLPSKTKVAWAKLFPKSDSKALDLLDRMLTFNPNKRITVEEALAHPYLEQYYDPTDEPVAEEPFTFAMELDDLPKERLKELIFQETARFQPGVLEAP", "sequence (P28482 whole entry, looked up)": "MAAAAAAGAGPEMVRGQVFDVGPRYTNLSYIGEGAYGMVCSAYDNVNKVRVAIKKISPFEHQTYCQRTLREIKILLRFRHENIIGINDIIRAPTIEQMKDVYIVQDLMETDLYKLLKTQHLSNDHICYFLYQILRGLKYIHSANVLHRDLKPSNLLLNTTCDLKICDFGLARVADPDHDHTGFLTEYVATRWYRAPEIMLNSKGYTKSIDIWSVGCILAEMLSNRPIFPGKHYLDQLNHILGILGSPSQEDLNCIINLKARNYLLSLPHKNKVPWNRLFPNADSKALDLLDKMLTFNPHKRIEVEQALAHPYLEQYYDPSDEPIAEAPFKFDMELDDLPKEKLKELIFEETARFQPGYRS", "experiment": "Effect on ERK1/2 phosphorylation in human Bel7402/5-FU cells assessed as ratio of phosphorylated ERK1/2 to beta-actin level at 0.05 uM after 48 hrs by Western blot analysis (reference value: 0.59)", "format": "cell-based"}, "[22]": {"system": "Bel7402/5-FU", "experiment": "Effect on E-cadherin expression in human Bel7402/5-FU cells assessed as ratio of E-cadherin to beta-actin level at 0.05 uM after 48 hrs by Western blot analysis (reference value: 0.2)", "format": "functional"}, "[23]": {"system": "Bel7402/5-FU", "experiment": "Cell cycle arrest in human Bel7402/5-FU cells assessed as accumulation at G2 phase at 0.05 uM after 48 hrs by propidium iodide staining based flow cytometry (reference value: 35.16%)", "format": "functional"}, "[24]": {"system": "Bel7402/5-FU", "experiment": "Induction of apoptosis in human Bel7402/5-FU cells assessed as early apoptotic cells at 0.05 uM after 48 hrs by Annexin V-APC/7-AAD staining based flow cytometry (reference value: 5.24%)", "format": "functional"}, "[25]": {"system": "Bel7402/5-FU", "experiment": "Effect on COX1 expression in human Bel7402/5-FU cells assessed as ratio of COX1 to beta-actin level at 0.05 uM after 48 hrs by Western blot analysis (reference value: 0.48)", "format": "functional"}, "[26]": {"system": "Bel7402/5-FU", "experiment": "Induction of apoptosis in human Bel7402/5-FU cells assessed as necrotic cells at 0.05 uM after 48 hrs by Annexin V-APC/7-AAD staining based flow cytometry (reference value: 0.58%)", "format": "functional"}, "[27]": {"target": "Signal transducer and activator of transcription 3 (Homo sapiens) (UniProt P40763)", "sequence (P40763 whole entry)": "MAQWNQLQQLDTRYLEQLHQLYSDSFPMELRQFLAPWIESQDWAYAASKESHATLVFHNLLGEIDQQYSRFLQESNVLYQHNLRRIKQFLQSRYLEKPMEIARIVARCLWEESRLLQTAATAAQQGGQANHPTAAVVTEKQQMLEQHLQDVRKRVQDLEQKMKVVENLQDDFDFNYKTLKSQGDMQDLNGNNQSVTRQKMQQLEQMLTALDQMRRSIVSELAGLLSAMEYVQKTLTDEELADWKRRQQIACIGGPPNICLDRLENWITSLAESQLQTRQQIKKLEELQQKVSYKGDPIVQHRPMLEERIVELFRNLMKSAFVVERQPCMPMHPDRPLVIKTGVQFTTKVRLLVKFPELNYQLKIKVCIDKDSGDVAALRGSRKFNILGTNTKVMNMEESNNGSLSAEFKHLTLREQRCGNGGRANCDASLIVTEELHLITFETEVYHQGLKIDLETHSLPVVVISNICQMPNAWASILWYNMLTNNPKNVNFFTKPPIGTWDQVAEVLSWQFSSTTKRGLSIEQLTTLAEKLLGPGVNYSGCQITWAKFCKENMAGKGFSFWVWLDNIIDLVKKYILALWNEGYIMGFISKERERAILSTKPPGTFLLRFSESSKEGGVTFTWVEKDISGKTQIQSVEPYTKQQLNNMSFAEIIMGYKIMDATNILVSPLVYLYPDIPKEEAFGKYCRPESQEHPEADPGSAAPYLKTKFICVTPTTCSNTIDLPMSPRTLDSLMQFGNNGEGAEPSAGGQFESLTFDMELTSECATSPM", "experiment": "Effect on STAT3 phosphorylation in human Bel7402/5-FU cells assessed as ratio of phosphorylated STAT3 to beta-actin level at 0.05 uM after 48 hrs by Western blot analysis (reference value: 0.3)", "format": "cell-based"}, "[28]": {"system": "Bel7402/5-FU", "experiment": "Effect on P-gp expression in human Bel7402/5-FU cells assessed as ratio of P-gp to beta-actin level at 0.05 uM after 48 hrs by Western blot analysis (reference value: 0.59)", "format": "functional"}, "[29]": {"system": "Bel7402/5-FU", "experiment": "Induction of microtubule disruption in human Bel7402/5-FU cells at 0.05 uM after 24 to 48 hrs by DAPI staining based immunofluorescence microscopic method", "format": "functional, cell-based"}, "[30]": {"system": "Bel7402/5-FU", "experiment": "Induction of apoptosis in human Bel7402/5-FU cells assessed as ratio of cleaved caspase-8 to beta-actin level at 0.05 uM after 48 hrs by Western blot analysis (reference value: 0.17)", "format": "functional"}, "[31]": {"system": "Bel7402/5-FU", "experiment": "Effect on iNOS expression in human Bel7402/5-FU cells assessed as ratio of iNOS to beta-actin level at 0.05 uM after 48 hrs by Western blot analysis (reference value: 0.13)", "format": "functional"}, "[32]": {"system": "Bel7402/5-FU", "experiment": "Effect on MRP1 expression in human Bel7402/5-FU cells assessed as ratio of MRP1 to beta-actin level at 0.05 uM after 48 hrs by Western blot analysis (reference value: 0.58)", "format": "functional"}, "[33]": {"system": "Bel7402/5-FU", "experiment": "Induction of apoptosis in human Bel7402/5-FU cells assessed as condensed nuclei at 0.05 uM after 24 hrs by Hoechst 33342 staining based fluorescent microscopic method", "format": "functional, cell-based"}, "[34]": {"system": "Bel7402/5-FU", "experiment": "Induction of apoptosis in human Bel7402/5-FU cells assessed as reduction in cell number at 0.05 uM after 24 hrs by Hoechst 33342 staining based fluorescent microscopic method", "format": "functional"}, "[35]": {"system": "Bel7402/5-FU", "experiment": "Effect on COX2 expression in human Bel7402/5-FU cells assessed as ratio of COX2 to beta-actin level at 0.05 uM after 48 hrs by Western blot analysis (reference value: 0.36)", "format": "functional"}, "[36]": {"system": "Bel7402/5-FU", "experiment": "Effect on VEGFR2 expression in human Bel7402/5-FU cells assessed as ratio of VEGFR2 to beta-actin level at 0.05 uM after 48 hrs by Western blot analysis (reference value: 0.25)", "format": "functional"}, "[37]": {"system": "Bel7402/5-FU", "experiment": "Effect on MMP2 expression in human Bel7402/5-FU cells assessed as ratio of MMP2 to beta-actin level at 0.05 uM after 48 hrs by Western blot analysis (reference value: 0.3)", "format": "functional"}}, "note": "The source made the active and inactive calls. No cut-off for these calls is given here."}
{"compound": "COc1cc([C@@H]2c3cc4c(cc3[C@H](O)[C@H]3COC(=O)[C@H]23)OCO4)cc(OC)c1OC", "note": "[PODOFILOX]", "values": [{"measurement": "IC50", "setting": "[1]", "result": 44, "unit": "nM"}, {"measurement": "Ratio", "setting": "[2]", "result": 0.38}, {"measurement": "IC50", "setting": "[3]", "result": 22, "unit": "nM"}, {"measurement": "Activity", "setting": "[4]", "result": 23.17, "unit": "%"}, {"measurement": "Ratio", "setting": "[5]", "result": 0.29}, {"measurement": "Ratio", "setting": "[6]", "result": 0.41}, {"measurement": "Activity", "setting": "[7]", "result": "Active"}, {"measurement": "Activity", "setting": "[8]", "result": "Active"}, {"measurement": "Activity", "setting": "[9]", "result": "Active"}, {"measurement": "Ratio", "setting": "[10]", "result": 0.26}, {"measurement": "Ratio", "setting": "[11]", "result": 0.27}, {"measurement": "Ratio IC50", "setting": "[12]", "result": 0.84}, {"measurement": "Activity", "setting": "[13]", "result": 63.7, "unit": "%"}, {"measurement": "Activity", "setting": "[14]", "result": 9.1, "unit": "%"}, {"measurement": "Ratio", "setting": "[15]", "result": 0.27}, {"measurement": "Activity", "setting": "[16]", "result": "Active"}, {"measurement": "Ratio", "setting": "[17]", "result": 0.33}, {"measurement": "Ratio", "setting": "[18]", "result": 0.35}, {"measurement": "Activity", "setting": "[19]", "result": 17.28, "unit": "%"}, {"measurement": "IC50", "setting": "[20]", "result": 52, "unit": "nM"}, {"measurement": "Ratio", "setting": "[21]", "result": 0.38}, {"measurement": "Ratio", "setting": "[22]", "result": 0.28}, {"measurement": "Activity", "setting": "[23]", "result": 73.62, "unit": "%"}, {"measurement": "Activity", "setting": "[24]", "result": 8.48, "unit": "%"}, {"measurement": "Ratio", "setting": "[25]", "result": 0.43}, {"measurement": "Activity", "setting": "[26]", "result": 4.65, "unit": "%"}, {"measurement": "Ratio", "setting": "[27]", "result": 0.41}, {"measurement": "Ratio", "setting": "[28]", "result": 0.49}, {"measurement": "Activity", "setting": "[29]", "result": "Active"}, {"measurement": "Ratio", "setting": "[30]", "result": 0.26}, {"measurement": "Ratio", "setting": "[31]", "result": 0.18}, {"measurement": "Ratio", "setting": "[32]", "result": 0.52}, {"measurement": "Activity", "setting": "[33]", "result": "Active"}, {"measurement": "Activity", "setting": "[34]", "result": "Active"}, {"measurement": "Ratio", "setting": "[35]", "result": 0.39}, {"measurement": "Ratio", "setting": "[36]", "result": 0.22}, {"measurement": "Ratio", "setting": "[37]", "result": 0.13}]}
